Experimental data reported in PMC6257622, “Discovery and Structure–Activity-Relationship Study of N-Alkyl-5-hydroxypyrimidinone Carboxamides as Novel Antitubercular Agents Targeting Decaprenylphosphoryl-β-D-ribose 2′-Oxidase” (Journal of Medicinal Chemistry, 2018).
Converted amounts (≈) assume the structure as drawn. “And” between values parts separate entries of the source, which are not always exact repeats. Equal values may be shown once. Read-outs that look alike come from different tables or passages of the source.

Experiments:
[1] = tested on: Mtb strain H37Rv; assay: MIC determination against Mtb H37Rv in different media; format: cell-based, Mycobacterium tuberculosis
[2] = tested on: Mtb cydC::aph strain; format: cell-based, Mycobacterium tuberculosis
[3] = tested on: iniBAC promoter; format: cell-based, Mycobacterium tuberculosis
[4] = tested on: recA and radA reporters; format: cell-based, Mycobacterium tuberculosis
[5] = in vitro; format: cell-based; details: human; HepG2 cells in DMEM/10% FBS supplemented with glucose; read-out: Cytotoxicity (IC50) Glucose
[6] = tested on: HepG2 cells; assay: in vitro; format: cell-based; details: HepG2 cells in DMEM/10% FBS with galactose (mitochondrial toxicity); read-out: Cytotoxicity (IC50) Galactose
[7] = tested on: actively replicating Mtb; format: cell-based, Mycobacterium tuberculosis
[8] = tested on: anaerobic nonreplicating Mtb cells; format: cell-based, Mycobacterium tuberculosis; details: 7 days exposure, 1–50× aerobic MIC, Wayne model
[9] = C57Bl/6 mice, oral, 10 mg/kg single dose
[10] = tested on: Mtb in J774 murine macrophages; assay: Intracellular killing assay in murine macrophage J774; details: 1–50-fold MIC, 4 or 7 days
Description: For the ex vivo efficacy test, J774 cells (5 × 10^5 cells/well) were seeded in flat-bottom 24-well plates (Corning Inc.) in DMEM GlutaMAX (Gibco/ThermoFisher Scientific) supplemented with 10% fetal-bovine serum, 20 mM HEPES, and 0.5 mM sodium pyruvate (hereafter abbreviated as DMEM/FBS). Cells were infected with Mtb (5 × 10^5 cells/well, MOI 1) for 24 h; this was followed by medium removal and washing (2×) with an equal volume of Dulbecco’s PBS. Infected cells were fed DMEM/FBS and exposed to test compounds at 1×, 10×, 20×, and 50× MIC in medium (500 μL/well). Cells were incubated at 37 °C with 95% humidity and 5% CO2 in an incubator for 7 days. The medium was changed every 4 days. After 4 and 7 days of incubation, 0.1% SDS was added to each well to lyse the J774 cells. After 5 min, the lysate was thoroughly mixed and diluted in 7H9/ADC, and appropriate dilutions were plated in duplicate on 7H11/OADC plates.

[11] = Mycobacterium tuberculosis, H37RV, Mtb H37Rv in GAST (Table 2), read-out: MIC GAST
[12] = Mycobacterium tuberculosis, H37RV, supplementary CSV, read-out: MIC in 7H9/ADC
[13] = Mycobacterium tuberculosis, H37RV, supplementary CSV, read-out: MIC in GAST/Fe
[14] = Mycobacterium tuberculosis, H37RV, read-out: MIC 7H9/ADC

Cn1c(Cc2ccccc2C(F)(F)F)nc(C(=O)NCc2ccccc2)c(O)c1=O [Compound P01, N-Benzyl-5-hydroxy-1-methyl-6-oxo-2-(2-(trifluoromethyl)benzyl)-1,6-dihydropyrimidine-4-carboxamide]
MIC [1, 11]: 0.59 µM | MIC ([1]; Mycobacterium tuberculosis, H37RV, Mtb H37Rv, GAST medium (Table 1), read-out: MIC GAST): 0.4 ± 0.2 µM | MIC ([1]; Mycobacterium tuberculosis, H37RV, pH 6, read-out: MIC nitrite/butyrate): 12.5 µM | MIC [1, 12]: 4.7 µM | MIC [1, 13]: 0.59 µM | MIC [1, 14]: 4.7 ± 1.5 µM | MIC ([1]; Mycobacterium tuberculosis, H37RV, read-out: MIC Chol): 1.6 µM | MIC ([1]; Mycobacterium tuberculosis, H37RV, read-out: MIC GBSA or DBSA): 3.1 µM | MIC ([1]; Mycobacterium tuberculosis, H37RV, read-out: MIC in 7H9/ADC): ~1.9 µg/mL | MIC ([1]; Mycobacterium tuberculosis, H37RV, read-out: MIC, DprE1 wild type): 3.13 µM | MIC ([1]; read-out: MIC 7H9/ADC): 4.7 µM | MIC CydKO [2]: 6.2 µM (≈ 2.59 µg/mL) | reporter-gene assay cell wall [3]: positive | reporter-gene assay DNA damage [4]: no induction | IC50 [5]: > 100 µM | IC50 [6]: > 100 µM | logarithmic reduction in colony-forming units [7]: 1–2 log | bactericidal activity against anaerobic nonreplicating Mtb [8]: lacked bactericidal activity | AUC [9]: 1060 ng·h/mL | CL [9]: 9.48 | Tmax [9]: 1.0 h | Vd [9]: 33.7 L/kg | Cmax ([9]; suspension): 250 ng/mL | T1/2 ([9]; 10 mg/kg): 4 h and 4.1 h | activity against Mtb replication in J774 murine macrophages [10]: active

Cn1c(Cc2ccccc2)nc(C(=O)NCc2ccccc2)c(O)c1=O [Compound P02, N,2-Dibenzyl-5-hydroxy-1-methyl-6-oxo-1,6-dihydropyrimidine-4-carboxamide]
MIC [1, 11]: 3.1 µM | MIC [1, 12]: 9.4 µM | MIC [1, 13]: 3.1 µM | MIC [1, 14]: 9.4 µM | IC50 [5]: > 100 µM | IC50 [6]: > 100 µM

CCn1c(Cc2ccccc2C(F)(F)F)nc(C(=O)NCc2ccccc2)c(O)c1=O [Compound P04, N-Benzyl-1-ethyl-5-hydroxy-6-oxo-2-(2-(trifluoromethyl)benzyl)-1,6-dihydropyrimidine-4-carboxamide]
MIC ([1]; Mtb H37Rv in GAST (Table 2), read-out: MIC GAST): 0.39 µM | MIC [1, 11]: 0.4 µM | MIC [1, 12]: 2.3 µM | MIC [1, 13]: 0.39 µM | MIC [1, 14]: 2.3 µM | IC50 [5]: > 100 µM | IC50 [6]: > 100 µM | activity against Mtb replication in J774 murine macrophages [10]: active

Cn1c(Cc2ccccc2C(F)(F)F)nc(C(=O)Nc2ccccc2)c(O)c1=O [Compound P05, 5-Hydroxy-1-methyl-6-oxo-N-phenyl-2-(2-(trifluoromethyl)benzyl)-1,6-dihydropyrimidine-4-carboxamide]
fold increase in MIC (reduced potency) compared with P01 [1]: around 4 fold | MIC [1, 11]: 1.6 µM | MIC [1, 12]: 18.8 µM | MIC [1, 13]: 1.6 µM | MIC [1, 14]: 18.8 µM | IC50 [5]: > 100 µM | IC50 [6]: > 100 µM

Cn1c(Cc2ccccc2C(F)(F)F)nc(C(=O)NCC2CCCCC2)c(O)c1=O [Compound P06, N-(Cyclohexylmethyl)-5-hydroxy-1-methyl-6-oxo-2-(2-(trifluoromethyl)benzyl)-1,6-dihydropyrimidine-4-carboxamide]
MIC [1, 11]: 12.5 µM | MIC [1, 12]: > 100 µM | MIC [1, 13]: 12.5 µM | MIC [1, 14]: > 100 µM | IC50 [5]: > 100 µM | IC50 [6]: > 100 µM

Cn1c(Cc2ccccc2C(F)(F)F)nc(C(=O)NCc2ccccn2)c(O)c1=O [Compound P07, 5-Hydroxy-1-methyl-6-oxo-N-(pyridin-2-ylmethyl)-2-(2-(trifluoromethyl)benzyl)-1,6-dihydropyrimidine-4-carboxamide]
MIC [1, 11]: 1.2 µM | MIC [1, 12]: 3.1 µM | MIC [1, 13]: 1.2 µM | MIC [1, 14]: 3.1 µM | IC50 [5]: > 100 µM | IC50 [6]: > 100 µM | activity against Mtb replication in J774 murine macrophages [10]: active

Cn1c(Cc2ccccc2C(F)(F)F)nc(C(=O)NCc2cccnc2)c(O)c1=O [Compound P08, 5-Hydroxy-1-methyl-6-oxo-N-(pyridin-3-ylmethyl)-2-(2-(trifluoromethyl)benzyl)-1,6-dihydropyrimidine-4-carboxamide]
MIC [1, 11]: 4.7 µM | MIC [1, 12]: 18.8 µM | MIC [1, 13]: 4.7 µM | MIC [1, 14]: 18.8 µM | IC50 [5]: > 100 µM | IC50 [6]: > 100 µM

Cn1c(Cc2ccccc2C(F)(F)F)nc(C(=O)NCc2ccccc2F)c(O)c1=O [Compound P09, N-(2-Fluorobenzyl)-5-hydroxy-1-methyl-6-oxo-2-(2-(trifluoromethyl)benzyl)-1,6-dihydropyrimidine-4-carboxamide]
MIC [1, 11]: 0.59 µM | MIC [1, 12]: 4.7 µM | MIC [1, 13]: 0.59 µM | MIC [1, 14]: 4.7 µM | fold more potent than regioisomer P10 ([1]; o-F versus p-F): > 4 fold | IC50 [5]: > 100 µM | IC50 [6]: > 100 µM | activity against Mtb replication in J774 murine macrophages [10]: active

Cn1c(Cc2ccccc2C(F)(F)F)nc(C(=O)NCc2ccc(F)cc2)c(O)c1=O [Compound P10, N-(4-Fluorobenzyl)-5-hydroxy-1-methyl-6-oxo-2-(2-(trifluoromethyl)benzyl)-1,6-dihydropyrimidine-4-carboxamide]
MIC [1, 11]: 2.3 µM | MIC [1, 12]: 18.8 µM | MIC [1, 13]: 2.3 µM | MIC [1, 14]: 18.8 µM | IC50 [5]: > 100 µM | IC50 [6]: > 100 µM
